Results: patent US7833531B2, “Method for treating insulin sensitivity by long-acting GLP-1 receptor mimetibody agonists” (Centocor, Inc., priority 2006, dated 2010)
“Also recorded” adds a separate entry of the source.

How the values were obtained:
Type in all cases: in vivo
DIO mice [1] = test: Hyperinsulinemic euglycemic clamp, body weights and plasma parameters in DIO mice after acute treatment; conditions: for Body weight / FFA / Glucose / Glycerol / Insulin: single i.p. injection, mean ± SD; for FFA / Glucose / Glycerol / Insulin: plasma
Description: (§1) The effect of acute treatment of CNTO 736 (Table 4, SEQ ID NO:70) on insulin sensitivity and lipid metabolism was evaluated in C57Bl mice maintained on a high fat diet for 10 weeks (DIO mice). […] The effect of chronic treatment of CNTO 736 on insulin sensitivity and lipid metabolism was evaluated in C57Bl mice maintained on a high fat diet for 10 weeks. […] The hyperinsulinemic-euglycemic clamp was performed under Acepromazine (6.25 mg/kg)/Midazolam (6.25 mg/kg)/Fentanyl (0.3125 mg/kg) anaesthesia in the following manner. Mice had free access to high fat food and water until 10 hours prior to the clamp. […] Subsequently, insulin was administered in a primed (4.5 mU) continuous (6.8 mU/h) i.v. infusion for approximately 2 h to attain steady state circulating insulin levels of 4 ng/ml. […] VLDL-TG production was calculated from the slope of the concentration curve and expressed as gmol/kg/min. Turnover rates of glucose (μmol/min/kg) was calculated in basal and hyperinsulinemic conditions as the rate of tracer infusion (dpm/min) divided by the plasma specific activity of 14C-glucose (dpm/μmol). The ratio was corrected for body weight. Endogenous glucose production (EGP) was calculated as the difference between the tracer-derived rate of glucose appearance and the infusion rate of glucose. Glucose disposal was calculated based on the concentration of 14C-glucose normalized to infusion rate of glucose. The statistical significance (p<0.05) in various measures of glucose turnover and VLDL production among groups was tested by analysis of variance.

Sprague-Dawley rats = test: Intracerebroventricular (icv) dosing in rats: food intake, water intake, body weight; conditions: icv 3 nmols
From the text: Sprague-Dawley rats weighing 250-350 g were cannulized into the lateral ventricle at the following coordinates: −0.80 mm anterior, +1.2 mm lateral to bregma, −3.2 mm ventral to bregma. Animals were submitted for Angiotensin II testing to confirm that the cannulas were placed appropriately. Rats were acclimated to a reversed light/dark cycle and to handling. A 24-hour fasted/refed measurement was taken after a single PBS injection in order to establish a feeding baseline. Animals were evenly distributed according to 24-hour food intake from PBS injections (3 groups of 10 animals). Seven-ten days following PBS injection, rats were fasted for 24 hours and were dosed icv prior to entering the dark cycle.

DIO mice [2] = test: VLDL production in DIO mice after chronic treatment; conditions: either dose of CNTO 736
Description: (§2) The effect of acute treatment of CNTO 736 (Table 4, SEQ ID NO:70) on insulin sensitivity and lipid metabolism was evaluated in C57Bl mice maintained on a high fat diet for 10 weeks (DIO mice). […] The effect of chronic treatment of CNTO 736 on insulin sensitivity and lipid metabolism was evaluated in C57Bl mice maintained on a high fat diet for 10 weeks.
(§3) Blood samples (20 μl) were taken at t=0, 10, 20, 40 and 60 minutes after injection to determine the concentration of plasma triglycerides (TG). VLDL-TG production was calculated from the slope of the concentration curve and expressed as gmol/kg/min. Turnover rates of glucose (μmol/min/kg) was calculated in basal and hyperinsulinemic conditions as the rate of tracer infusion (dpm/min) divided by the plasma specific activity of 14C-glucose (dpm/μmol). The ratio was corrected for body weight. Endogenous glucose production (EGP) was calculated as the difference between the tracer-derived rate of glucose appearance and the infusion rate of glucose. Glucose disposal was calculated based on the concentration of 14C-glucose normalized to infusion rate of glucose. The statistical significance (p<0.05) in various measures of glucose turnover and VLDL production among groups was tested by analysis of variance.

DIO mice [3] = test: Hyperinsulinemic euglycemic clamp, body weights and plasma parameters in DIO mice after chronic treatment; conditions: for Body weight / FFA / Glycerol / Insulin / Glucose: daily i.p. injections weeks 7 through 10, mean ± SD; for FFA / Glycerol / Insulin / Glucose: plasma
Description: as §1, with “variance. […] Two hours after the last dose, mice were subjected to hyperinsulinemic euglycemic clamp.” for “variance.”

DIO mice [4] = test: VLDL production in DIO mice after acute treatment
Description: as §2, §3

[5] = acute, i.p., CNTO 736 1 mg/kg and 0.1 mg/kg, exenatide 7.1 ug/ml, clamp 2 hours post dosing, differences do not reach statistical significance
[6] = acute, CNTO 736 0.1 mgk, Hyperinsulinemic
[7] = acute, CNTO 736 1 mgk, Hyperinsulinemic
[8] = 24 hours fasted rats, first 12 hours following dosing
[9] = second 12 hours following dosing (12-24 hours)
[10] = chronic, CNTO 736 0.1 mgk, Basal
[11] = chronic, CNTO 736 0.1 mgk, Hyperinsulinemic
[12] = chronic, CNTO 736 1 mgk, Hyperinsulinemic

With “CNTO 736: a GLP-1 receptor agonist, a GLP-1 mimetibody construct; sequence in Table 4 (SEQ ID NO:70)” the “glycerol turnover (lipolysis)” value (DIO mice [1]; acute administration, either dose, basal (fasting) or hyperinsulinemic conditions) was “did not affect glycerol turnover”, the basal glucose production (DIO mice [1]; [5]) was “tend to decrease the basal glucose production” and the “whole body glucose disposal” value (DIO mice [1]; [5]) was “increase the whole body glucose disposal”. The Body weight (DIO mice [1]; acute, CNTO 736 0.1 mgk, Basal) was 31.3 ± 1.6 g, the Body weight (DIO mice [1]; [6]) was 31.3 ± 1.6 g and the Body weight (DIO mice [1]; acute, CNTO 736 1 mgk, Basal) was 31.2 ± 2.2 g. The Body weight (DIO mice [1]; [7]) was 31.2 ± 2.2 g, the FFA (DIO mice [1]; acute, CNTO 736 0.1 mgk, Basal) was 1.1 ± 0.5 mmol/L and the Glucose (DIO mice [1]; acute, CNTO 736 0.1 mgk, Basal) was 5.5 ± 1.2 mmol/L. It also gave a Glycerol (DIO mice [1]; acute, CNTO 736 0.1 mgk, Basal) of 0.2 ± 0.1 mmol/L, an Insulin (DIO mice [1]; acute, CNTO 736 0.1 mgk, Basal) of 1.1 ± 0.8 ng/mL and an FFA (DIO mice [1]; [6]) of 0.7 ± 0.3 mmol/L. For the same substance, the Glucose (DIO mice [1]; [6]) was 7.3 ± 0.5 mmol/L, the Glycerol (DIO mice [1]; [6]) was 0.1 ± 0.1 mmol/L and the Insulin (DIO mice [1]; [6]) was 3.5 ± 1.3 ng/mL. It also gave an FFA (DIO mice [1]; acute, CNTO 736 1 mgk, Basal) of 1.1 ± 0.5 mmol/L, a Glycerol (DIO mice [1]; acute, CNTO 736 1 mgk, Basal) of 0.2 ± 0.1 mmol/L and an Insulin (DIO mice [1]; acute, CNTO 736 1 mgk, Basal) of 0.9 ± 0.6 ng/mL. The FFA (DIO mice [1]; [7]) was 0.6 ± 0.4 mmol/L, the Glucose (DIO mice [1]; [7]) was 8.0 ± 0.8 mmol/L and the Glycerol (DIO mice [1]; [7]) was 0.1 ± 0.1 mmol/L. For the same substance, the Insulin (DIO mice [1]; [7]) was 4.5 ± 1.7 ng/mL, the food intake (Sprague-Dawley rats; [8]) was “significant reduction” and the water intake (Sprague-Dawley rats; [8]) was “significant reduction”. For the same substance, the food intake (Sprague-Dawley rats; [9]) was “significant reduction in food intake”, the water intake (Sprague-Dawley rats; [9]) was “observed only with exendin-4 treatment” and the “basal and hyperinsulinemic rate of VLDL production” value (DIO mice [2]) was “significantly decreased; also recorded: decreases VLDL production”. For the same substance, the “glycerol turnover (lipolysis)” value (DIO mice [3]; chronic administration, either dose, basal (fasting) or hyperinsulinemic conditions) was “did not affect glycerol turnover”, the “insulin action / peripheral insulin sensitivity” value (DIO mice [3]; chronic dosing, mice with diet-induced obesity) was “improve insulin action; also recorded: significantly improves peripheral insulin sensitivity” and the Body weight (DIO mice [3]; [10]) was 26.1 ± 1.9 g. The Body weight (DIO mice [3]; [11]) was 26.1 ± 1.9 g, the Body weight (DIO mice [3]; [12]) was 25.1 ± 1.3 g and the “gluconeogenesis in the fasting state (de novo glucose production)” value (DIO mice [3]; chronic, i.p. daily for 4 weeks) was “significantly decreased gluconeogenesis; also recorded: inhibits hepatic gluconeogenesis”. For the same substance, the “basal hepatic glucose production” value (DIO mice [3]; chronic, i.p. daily for 4 weeks, both doses of CNTO 736 (1 or 0.1 mg/kg), exendin-4 7.1 μg/kg) was “significantly decreased”, the “insulin-inhibition of hepatic glucose production” value (DIO mice [3]; chronic, i.p. daily for 4 weeks, both doses of CNTO 736, exendin-4 7.1 μg/kg) was “increased insulin-inhibition of hepatic glucose production” and the “whole body glucose disposal in the hyperinsulinemic state” value (DIO mice [3]; chronic, i.p. daily for 4 weeks, high dose of CNTO 736 (1 mg/kg), exendin-4 7.1 μg/kg) was “significantly increased”. For the same substance, the “gluconeogenesis in the fasting state (de novo glucose production)” value (DIO mice [3]; chronic, i.p. daily for 4 weeks, listed as CNT0736) was “inhibited de novo glucose production”, the FFA (DIO mice [3]; [10]) was 1.1 ± 0.3 mmol/L and the Glycerol (DIO mice [3]; [10]) was 0.2 ± 0.0 mmol/L. For the same substance, the Insulin (DIO mice [3]; [10]) was 1.1 ± 0.6 ng/mL, the FFA (DIO mice [3]; [11]) was 0.5 ± 0.1 mmol/L and the Glucose (DIO mice [3]; [11]) was 7.6 ± 1.1 mmol/L. For the same substance, the Glycerol (DIO mice [3]; [11]) was 0.1 ± 0.1 mmol/L, the Insulin (DIO mice [3]; [11]) was 4.6 ± 1.0 ng/mL and the FFA (DIO mice [3]; chronic, CNTO 736 1 mgk, Basal) was 1.1 ± 0.2 mmol/L. The Glycerol (DIO mice [3]; chronic, CNTO 736 1 mgk, Basal) was 0.2 ± 0.1 mmol/L, the Insulin (DIO mice [3]; chronic, CNTO 736 1 mgk, Basal) was 1.4 ± 1.3 ng/mL and the FFA (DIO mice [3]; [12]) was 0.4 ± 0.1 mmol/L. It also gave a Glucose (DIO mice [3]; [12]) of 7.6 ± 0.9 mmol/L, a Glycerol (DIO mice [3]; [12]) of 0.1 ± 0.1 mmol/L and an Insulin (DIO mice [3]; [12]) of 5.0 ± 1.9 ng/mL. For the same substance, the “basal or hyperinsulinemic rate of VLDL production” value (DIO mice [4]) was “did not change”.
